Columns and labels:
[1] = target: T1, human HAQ STING isoform (hSTING HAQ) (Homo sapiens, UniProt Q86WV6, G230A/H232R/R293Q/R71H); test: IFN-β mRNA level in THP1 cells (qPCR, STING agonist cellular activity); assay type: cell-based; settings: compound at 3.6 μM, 2 hrs, IFNβ expression normalized against GAPDH by the 2^-ΔΔCT method, DMSO = 1.0
T1 construct: THP1 cells express the naturally occurring human HAQ STING isoform (hSTING HAQ); host or cells: THP1
Procedure, shortened: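 THP1 cells were seeded at 9×10^5 per well, incubated overnight, then treated with compound at 3.6 μM final (0.1% DMSO control) for 2 hrs at 37 °C. IFN-β mRNA was measured by SYBR Green qPCR, normalised to GAPDH by the 2^−ΔΔCT method, in triplicate.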

[2] = target: T2, hERG channel (Homo sapiens, UniProt Q12809); test: hERG safety evaluation, manual whole cell patch clamp in hERG-expressing HEK 293 cells; assay type: cell-based; settings: hERG stably expressed HEK 293 cells, tail current, whole cell recording
T2 construct: host or cells: HEK 293
Method: (1) hERG stably expressed HEK 293 cell line (#60187) was purchased from BPS Bioscience and P3-P20 were used for the study. Cells were cultured in medium containing: 90% MEM, 10% FBS, 0.1 mM NEAA, 100 U/mL Penicillin-Streptomycin, 1 mM Na pyruvate and 500 μg/mL Geneticin. Cells are split about three times a week, and maintained between ˜40% to ˜80% confluence. 24 to 48 hours prior to recordings, the cells were plated on 0.05 mg/mL PDL pre-coated glass cover slips placed in 48-well plate at 1×10^4 cells. (2) The number of cells being plated on the cover slip should reach a confluence rate at which majority of the cells are single. (1) Test compounds were initially prepared in DMSO with final concentration of 10 mM as stock solution. (2) Compound was first made into 10, 3, 1, 0.3 and 0.1 mM DMSO stock, then serial diluted into the desired test concentrations in the extracellular solution (ECs). 30 uM test solution was diluted from 10 mM DMSO stock. The final DMSO concentration was in range of 0.1-0.3%. HEKA EPC 10 USB patch clamp amplifier (from HEKA Elektronik, Germany) was used in the whole cell recording. A cover slip with plenty of single HEK293 hERG cells on the surface was removed and placed into a continuously perfused (approximately 1 ml/minute) recording chamber mounted on an inverted microscope. HERG channel currents were recorded from single cells using standard whole cell recording techniques. The cells were voltage clamped at a holding potential of −80 mV. Then hERG current was activated by depolarizing at +30 mV for 5000 ms, after which the current was taken back to −50 mV for 5000 ms to remove the inactivation and observe the deactivating tail current. The K+ tail current through HERG channels observed during this step was allowed to stabilize under continuous bath perfusion. Cells were then superfused with drug until steady state block was achieved. Steady state was considered reached when three consecutive super-imposable current records were collected. At this point, cells were once again superfused with extracellular solution until the current amplitude returned to values close to those measured before application of drug. (1) Percent current inhibition was calculated using the following equation. (Note: PatchMaster was used to extract the peak current from the original data.) (2) The dose response curve of test compounds was plotted with % inhibition against the concentration of test compounds using Graphpad Prism 9.0, and fit the data to a log(inhibitor) vs. response—Variable slope curve.

T2 sequence (Q12809 whole entry): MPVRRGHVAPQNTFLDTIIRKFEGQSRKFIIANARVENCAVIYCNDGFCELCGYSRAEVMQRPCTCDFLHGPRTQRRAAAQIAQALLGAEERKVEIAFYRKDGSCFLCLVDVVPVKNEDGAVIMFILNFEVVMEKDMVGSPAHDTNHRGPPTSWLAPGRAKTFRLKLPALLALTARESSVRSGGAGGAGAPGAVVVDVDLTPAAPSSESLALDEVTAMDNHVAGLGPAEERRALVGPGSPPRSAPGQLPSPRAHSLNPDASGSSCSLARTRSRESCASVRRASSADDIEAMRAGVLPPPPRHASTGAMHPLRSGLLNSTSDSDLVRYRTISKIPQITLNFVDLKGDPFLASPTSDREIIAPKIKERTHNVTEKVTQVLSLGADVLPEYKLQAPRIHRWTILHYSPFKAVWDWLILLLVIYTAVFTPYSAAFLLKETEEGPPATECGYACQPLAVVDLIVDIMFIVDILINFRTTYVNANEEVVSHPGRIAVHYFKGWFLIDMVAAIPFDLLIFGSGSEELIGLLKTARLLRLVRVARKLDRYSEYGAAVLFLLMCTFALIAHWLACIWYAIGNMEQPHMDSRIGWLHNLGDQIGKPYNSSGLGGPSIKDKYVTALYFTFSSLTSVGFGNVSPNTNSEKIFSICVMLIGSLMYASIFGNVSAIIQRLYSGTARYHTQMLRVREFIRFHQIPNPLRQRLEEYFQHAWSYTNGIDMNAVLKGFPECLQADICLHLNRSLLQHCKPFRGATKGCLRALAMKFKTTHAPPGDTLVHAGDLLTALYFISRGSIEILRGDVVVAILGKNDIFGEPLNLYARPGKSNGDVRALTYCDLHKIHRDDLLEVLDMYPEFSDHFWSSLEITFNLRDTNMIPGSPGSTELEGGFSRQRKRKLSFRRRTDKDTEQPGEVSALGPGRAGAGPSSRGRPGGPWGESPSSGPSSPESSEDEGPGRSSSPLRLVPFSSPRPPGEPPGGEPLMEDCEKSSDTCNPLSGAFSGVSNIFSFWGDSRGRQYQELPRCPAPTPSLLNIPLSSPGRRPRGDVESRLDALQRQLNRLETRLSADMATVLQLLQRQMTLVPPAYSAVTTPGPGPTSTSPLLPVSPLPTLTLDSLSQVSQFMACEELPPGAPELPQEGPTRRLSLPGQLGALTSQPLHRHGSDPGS
T1 sequence (Q86WV6 whole entry R71H/G230A/H232R/R293Q, canonical isoform): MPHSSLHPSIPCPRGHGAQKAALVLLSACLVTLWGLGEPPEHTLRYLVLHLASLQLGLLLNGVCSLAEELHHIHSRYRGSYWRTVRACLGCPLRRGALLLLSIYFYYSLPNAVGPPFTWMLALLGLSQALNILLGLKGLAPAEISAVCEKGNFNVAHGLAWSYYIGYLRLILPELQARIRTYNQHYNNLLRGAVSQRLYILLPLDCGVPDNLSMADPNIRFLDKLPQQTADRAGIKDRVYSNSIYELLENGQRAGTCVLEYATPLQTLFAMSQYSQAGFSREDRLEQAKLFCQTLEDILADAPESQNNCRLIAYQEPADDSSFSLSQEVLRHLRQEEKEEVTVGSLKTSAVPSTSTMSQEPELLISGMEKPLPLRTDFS

| SMILES | Relative mRNA INFβ/GAPDH THP 1 [1] | IC50 [2] [µM] |
| --- | --- | --- |
| COc1cc(CN(Cc2cn3c4c(c(F)c(F)cc4c2=O)OCC3C)[C@H]2CCCN(c3ccc(N)nc3)C2)ccn1 (stereo partly drawn) [Compound 1, 6-((((S)-1-(6-aminopyridin-3-yl)piperidin-3-yl)((2-methoxypyridin-4-yl)methyl)amino)methyl)-9,10-difluoro-3-methyl-2H-[1,4]oxazino[2,3,4-ij]quinolin-7(3H)-one] | 447.9 | 1.58 |
| COc1cc(CN(Cc2cn3c4c(c(N5CCN(C)CC5)c(F)cc4c2=O)OCC3C)[C@H]2CCCN(c3ccc(N)nc3)C2)ccn1 (stereo partly drawn) [Compound 29, 6-((((S)-1-(6-aminopyridin-3-yl)piperidin-3-yl)((2-methoxypyridin-4-yl)methyl)amino)methyl)-9-fluoro-3-methyl-10-(4-methylpiperazin-1-yl)-2H-[1,4]oxazino[2,3,4-ij]quinolin-7(3H)-one] | 3330.1 | 34.1 |
| COc1cc(CN(Cc2cn3c4c(c(F)c(F)cc4c2=O)OCC3C(C)C)[C@H]2CCCN(c3ccc(N)nc3)C2)ccn1 (stereo partly drawn) [Compound 53, 6-((((S)-1-(6-aminopyridin-3-yl)piperidin-3-yl)((2-methoxypyridin-4-yl)methyl)amino)methyl)-9,10-difluoro-3-isopropyl-2H-[1,4]oxazino[2,3,4-ij]quinolin-7(3H)-one] | 433.0 | 1.27 |
| COc1cc(CN(Cc2cn3c4c(c(F)c(F)cc4c2=O)OCC3)[C@H]2CCCN(c3ccc(N)nc3)C2)ccn1 [Compound 66, (S)-6-(((1-(6-aminopyridin-3-yl)piperidin-3-yl)((2-methoxypyridin-4-yl)methyl)amino)methyl)-9,10-difluoro-2,3-dihydro-7H-[1,4]oxazino[2,3,4-ij]quinolin-7-one] | 7328.8 | 2.72 |
| COc1cc(CN(Cc2cn3c4c(c(F)c(F)cc4c2=O)CCC3)[C@H]2CCCN(c3ccc(N)nc3)C2)ccn1 [Compound 67, (S)-2-(((1-(6-aminopyridin-3-yl)piperidin-3-yl)((2-methoxypyridin-4-yl)methyl)amino)methyl)-8,9-difluoro-6,7-dihydro-1H,5H-pyrido[3,2,1-ij]quinolin-1-one] | 7398.9 | 3.08 |
| COc1cc(CN(Cc2cn3c4c(c(F)c(F)cc4c2=O)SCC3)[C@H]2CCCN(c3ccc(N)nc3)C2)ccn1 [Compound 69, 9,10-difluoro-6-({[(3S)-1-(6-aminopyridin-3-yl)hexahydropyridin-3-yl][(2-methoxypyridin-4-yl)methyl]amino}methyl)-3,7-dihydro-2H-[1,4]thiazino[2,3,4-ij]quinolin-7-one] | 9547.9 | 1.94 |
| COCC1COc2c(F)c(F)cc3c(=O)c(CN(Cc4ccnc(OC)c4)[C@H]4CCCN(c5ccc(N)nc5)C4)cn1c23 (stereo partly drawn) [Compound 82, 6-((((S)-1-(6-aminopyridin-3-yl)piperidin-3-yl)((2-methoxypyridin-4-yl)methyl)amino)methyl)-9,10-difluoro-3-(methoxymethyl)-2,3-dihydro-7H-[1,4]oxazino[2,3,4-ij]quinolin-7-one] | 349.0 | 3.14 |
| COc1cc(CN(Cc2cn3c4c(c(N5CCN(C)CC5)c(F)cc4c2=O)OCC3C(C)C)[C@H]2CCCN(c3ccc(N)nc3)C2)ccn1 (stereo partly drawn) [Compound 96, 6-((((S)-1-(6-aminopyridin-3-yl)piperidin-3-yl)((2-methoxypyridin-4-yl)methyl)amino)methyl)-9-fluoro-3-isopropyl-10-(4-methylpiperazin-1-yl)-2,3-dihydro-7H-[1,4]oxazino[2,3,4-ij]quinolin-7-one] | 451.1 | – |
| Cc1cc(CN(Cc2cn3c4c(c(F)c(F)cc4c2=O)SCC3)[C@H]2CCCN(c3cnccn3)C2)ccn1 [Compound 97, (S)-9,10-difluoro-6-((((2-methylpyridin-4-yl)methyl)(1-(pyrazin-2-yl)piperidin-3-yl)amino)methyl)-2,3-dihydro-7H-[1,4]thiazino[2,3,4-ij]quinolin-7-one] | 1.0 | – |
| COc1cc(CN(Cc2cn3c4c(c(F)c(F)cc4c2=O)SCC3)[C@H]2CCCN(c3ccc(NCC4CC4)nc3)C2)ccn1 [Compound 98, (S)-6-(((1-(6-((cyclopropylmethyl)amino)pyridin-3-yl)piperidin-3-yl)((2-methoxypyridin-4-yl)methyl)amino)methyl)-9,10-difluoro-2,3-dihydro-7H-[1,4]thiazino[2,3,4-ij]quinolin-7-one] | 301.6 | – |
| COc1cc(CN(Cc2cn3c4c(c(F)c(F)cc4c2=O)OCC3)[C@H]2CCCN(c3ccc(NCC4CC4)nc3)C2)ccn1 [Compound 99, (S)-6-(((1-(6-((cyclopropylmethyl)amino)pyridin-3-yl)piperidin-3-yl)((2-methoxypyridin-4-yl)methyl)amino)methyl)-9,10-difluoro-2,3-dihydro-7H-[1,4]oxazino[2,3,4-ij]quinolin-7-one] | 368.7 | – |
| CCC1COc2c(F)c(F)cc3c(=O)c(CN(Cc4ccnc(OC)c4)[C@H]4CCCN(c5ccc(N)nc5)C4)cn1c23 (stereo partly drawn) [Compound 100, 6-((((S)-1-(6-aminopyridin-3-yl)piperidin-3-yl)((2-methoxypyridin-4-yl)methyl)amino)methyl)-3-ethyl-9,10-difluoro-2,3-dihydro-7H-[1,4]oxazino[2,3,4-ij]quinolin-7-one] | 581.3 | – |
| Cc1ccc(N2CCC[C@H](N(Cc3ccnc(C)c3)Cc3cn4c5c(c(OCCO)c(F)cc5c3=O)OCC4C)C2)cn1 (stereo partly drawn) [Compound 101, 9-fluoro-10-(2-hydroxyethoxy)-3-methyl-6-((((S)-1-(6-methylpyridin-3-yl)piperidin-3-yl)((2-methylpyridin-4-yl)methyl)amino)methyl)-2,3-dihydro-7H-[1,4]oxazino[2,3,4-ij]quinolin-7-one] | 332.9 | – |
| Cc1ccc(N2CCC[C@H](N(Cc3ccnc(C)c3)Cc3cn4c5c(c(O)c(F)cc5c3=O)OCC4C)C2)cn1 (stereo partly drawn) [Compound 102, 9-fluoro-10-hydroxy-3-methyl-6-((((S)-1-(6-methylpyridin-3-yl)piperidin-3-yl)((2-methylpyridin-4-yl)methyl)amino)methyl)-2,3-dihydro-7H-[1,4]oxazino[2,3,4-ij]quinolin-7-one] | 0.9 | – |
| COc1cc(CN(Cc2cn3c4c(c(OC)c(F)cc4c2=O)OCC3C)[C@H]2CCCN(c3ccc(N)nc3)C2)ccn1 (stereo partly drawn) [Compound 103, 6-((((S)-1-(6-aminopyridin-3-yl)piperidin-3-yl)((2-methoxypyridin-4-yl)methyl)amino)methyl)-9-fluoro-10-methoxy-3-methyl-2,3-dihydro-7H-[1,4]oxazino[2,3,4-ij]quinolin-7-one] | 356.0 | – |

Source: patent US20250171461A1, “STIMULATOR OF INTERFERON GENES (STING) MODULATORS, AND COMPOSITIONS AND METHODS THEREOF” (Geode Therapeutics Inc., priority 2022, published 2025)
